The results in this text go back to patent publication US20240239785A1, “SUBSTITUTED 2-(2,6-DIOXOPIPERIDIN-3-YL)-5-(1-PIPERIDIN-4-YL)ISOINDOLINE-1,3-DIONE DERIVATIVES AND USES THEREOF” (Neomorph, Inc., priority 2021, published 2024).

The target of this assay is T1, IKZF2 (Homo sapiens, UniProt Q96SW2+Q9UKS7).
T1 construct: endogenous in cells; host or cells: MOLT4 (CRISPR/Cas9 HiBit knock-in at the IKZF2 locus)
Briefly: MOLT4 IKZF2 HiBit assay. The class given is cell-based. The following applies: MOLT4 IKZF2 HiBit cells; for DC50: 6 hours incubation, 10-point dose response from 30 μM; for Dmax at 30 µM: MOLT-4, 6 hr (Dmax), read-out: % reduction of IKZF2 @ 30 μM (6 hr). On the procedure:
MOLT4 IKZF2 HiBit Assay Protocol:
This protocol used MOLT4 cells that were engineered using CRISPR/Cas9-mediated genomic insertion of HiBit, tagged to the N terminus of the IKZF2 coding sequence. Day 1. A 10-point dose response was created starting from 30 μM down to InM using a Tecan D300e. Next was added 8,000 cells/well of the MOLT4 IKZF2 HiBit cells to the compound plate. The compounds plate was incubated for 6 hours. Day 2. Nano-Glo HiBit Lytic Buffer/Nano-Glo HiBit Lytic substrate/LgBit Protein mix was added to each well and the compound plate was incubated for 15 minutes. Finally, luminescence signal was read using a BMG Labtech PHERAstar FSX. Data was normalized to DMSO and graphed using GraphPad Prism to determine the concentration points at which 50% of HiBiT-Helios degradation was achieved by each compound. The extent of degradation (range of luminescence) from the highest to lowest concentration points was calculated to determine Dmax.

Molecules are shown by their SMILES. Structures can show the parent of a compound that is named as a salt.

T1 sequence (Q9UKS7 whole entry): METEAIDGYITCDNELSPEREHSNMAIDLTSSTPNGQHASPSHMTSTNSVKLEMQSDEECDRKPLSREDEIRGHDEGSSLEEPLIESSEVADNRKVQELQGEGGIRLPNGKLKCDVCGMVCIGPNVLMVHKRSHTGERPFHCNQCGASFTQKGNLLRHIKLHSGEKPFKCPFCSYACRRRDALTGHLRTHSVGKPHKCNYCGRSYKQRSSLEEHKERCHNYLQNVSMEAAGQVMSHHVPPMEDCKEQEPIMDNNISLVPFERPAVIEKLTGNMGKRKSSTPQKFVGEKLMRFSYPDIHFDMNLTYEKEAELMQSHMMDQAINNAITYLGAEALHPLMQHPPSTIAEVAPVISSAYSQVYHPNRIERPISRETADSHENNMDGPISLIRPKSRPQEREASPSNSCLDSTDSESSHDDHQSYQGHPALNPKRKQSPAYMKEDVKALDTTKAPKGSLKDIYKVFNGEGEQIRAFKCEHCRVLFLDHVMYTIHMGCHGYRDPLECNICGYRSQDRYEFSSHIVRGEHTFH
T1 sequence (Q96SW2 whole entry): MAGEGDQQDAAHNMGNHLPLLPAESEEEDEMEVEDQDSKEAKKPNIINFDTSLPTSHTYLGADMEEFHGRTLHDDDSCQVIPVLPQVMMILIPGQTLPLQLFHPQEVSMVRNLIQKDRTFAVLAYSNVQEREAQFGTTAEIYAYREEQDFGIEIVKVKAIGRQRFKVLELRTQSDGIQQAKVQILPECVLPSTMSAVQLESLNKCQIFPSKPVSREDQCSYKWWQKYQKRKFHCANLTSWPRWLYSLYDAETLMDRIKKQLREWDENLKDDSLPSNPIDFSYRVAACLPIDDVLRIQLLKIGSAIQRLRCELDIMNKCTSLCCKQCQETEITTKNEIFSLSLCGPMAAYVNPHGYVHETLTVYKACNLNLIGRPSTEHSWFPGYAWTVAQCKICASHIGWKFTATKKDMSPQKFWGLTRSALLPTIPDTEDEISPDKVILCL
T1 sequence (Q16531 whole entry partner): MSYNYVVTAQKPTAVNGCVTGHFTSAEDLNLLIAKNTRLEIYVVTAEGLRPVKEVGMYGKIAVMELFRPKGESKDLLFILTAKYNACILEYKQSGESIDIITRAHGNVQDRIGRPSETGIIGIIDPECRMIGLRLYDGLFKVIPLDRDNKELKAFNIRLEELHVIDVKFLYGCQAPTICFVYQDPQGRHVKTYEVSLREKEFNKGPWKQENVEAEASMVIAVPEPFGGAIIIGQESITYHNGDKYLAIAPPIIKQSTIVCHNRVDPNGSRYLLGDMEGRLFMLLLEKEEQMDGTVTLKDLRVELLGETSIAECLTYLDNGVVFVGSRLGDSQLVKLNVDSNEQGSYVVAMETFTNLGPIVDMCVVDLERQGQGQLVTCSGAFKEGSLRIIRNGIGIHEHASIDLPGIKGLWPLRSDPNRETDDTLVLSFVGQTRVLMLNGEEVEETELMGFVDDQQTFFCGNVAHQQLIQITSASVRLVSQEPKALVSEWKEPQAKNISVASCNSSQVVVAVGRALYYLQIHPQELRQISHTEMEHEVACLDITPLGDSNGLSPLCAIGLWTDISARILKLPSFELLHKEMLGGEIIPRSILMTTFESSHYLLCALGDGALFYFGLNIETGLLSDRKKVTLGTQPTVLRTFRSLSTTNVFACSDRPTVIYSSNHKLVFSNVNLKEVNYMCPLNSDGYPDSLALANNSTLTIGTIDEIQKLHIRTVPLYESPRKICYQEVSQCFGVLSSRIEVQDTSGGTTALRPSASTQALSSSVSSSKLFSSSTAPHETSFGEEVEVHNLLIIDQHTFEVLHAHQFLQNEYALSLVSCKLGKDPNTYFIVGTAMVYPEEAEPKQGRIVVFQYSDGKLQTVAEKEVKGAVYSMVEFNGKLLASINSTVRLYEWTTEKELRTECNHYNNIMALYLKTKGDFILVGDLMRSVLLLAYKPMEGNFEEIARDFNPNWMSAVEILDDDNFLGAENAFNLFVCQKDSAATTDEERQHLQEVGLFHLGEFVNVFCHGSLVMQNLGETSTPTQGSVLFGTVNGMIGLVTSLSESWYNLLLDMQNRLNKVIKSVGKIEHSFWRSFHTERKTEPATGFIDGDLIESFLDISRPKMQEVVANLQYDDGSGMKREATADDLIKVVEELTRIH

In the case of `O=C1CCC(N2C(=O)c3ccc(C4(O)CCN(C(CF)c5ccccc5)CC4)cc3C2=O)C(=O)N1` (centres unmarked) [Compound 34, 2-(2,6-dioxopiperidin-3-yl)-5-[1-(2-fluoro-1-phenylethyl)-4-hydroxypiperidin-4-yl]-2,3-dihydro-1H-isoindole-1,3-dione, formic acid salt], the DC50 was 31 nM and the Dmax at 30 µM was found to be 76%.

Regarding `CC(c1ccccc1)N1CCC(O)(c2ccc3c(c2)C(=O)N(C2CCC(=O)NC2=O)C3=O)CC1` (centres unmarked) [Compound 35, 2-(2,6-dioxopiperidin-3-yl)-5-[4-hydroxy-1-(1-phenylethyl)piperidin-4-yl]-2,3-dihydro-1H-isoindole-1,3-dione, HCl salt], the DC50 amounted to 4 nM and the Dmax at 30 µM was 84%. In the same order, the values of `N#Cc1cccc(CN2CCC(O)(c3ccc4c(c3)C(=O)N(C3CCC(=O)NC3=O)C4=O)CC2)c1` (centres unmarked) [Compound 42, 3-({4-[2-(2,6-dioxopiperidin-3-yl)-1,3-dioxo-2,3-dihydro-1H-isoindol-5-yl]-4-hydroxypiperidin-1-yl}methyl)benzonitrile] are 9 nM and 80%. In the same order, the values of `N#Cc1ccc(CN2CCC(O)(c3ccc4c(c3)C(=O)N(C3CCC(=O)NC3=O)C4=O)CC2)cc1` (centres unmarked) [Compound 57, 4-({4-[2-(2,6-dioxopiperidin-3-yl)-1,3-dioxo-2,3-dihydro-1H-isoindol-5-yl]-4-hydroxypiperidin-1-yl}methyl)benzonitrile] are 6 nM and 81%. Take `COCc1ccc(CN2CCC(O)(c3ccc4c(c3)C(=O)N(C3CCC(=O)NC3=O)C4=O)CC2)cc1` (centres unmarked) [Compound 61, 2-(2,6-dioxopiperidin-3-yl)-5-(4-hydroxy-1-{[4-(methoxymethyl)phenyl]methyl}piperidin-4-yl)-2,3-dihydro-1H-isoindole-1,3-dione, HCl salt]: the DC50 was found to be 5 nM and the Dmax at 30 µM is 83%.

Turning to `O=C1CCC(N2C(=O)c3ccc(C4(O)CCN(Cc5ccccn5)CC4)cc3C2=O)C(=O)N1` (centres unmarked) [Compound 68, 2-(2,6-dioxopiperidin-3-yl)-5-{4-hydroxy-1-[(pyridin-2-yl)methyl]piperidin-4-yl}-2,3-dihydro-1H-isoindole-1,3-dione, HCl salt], the DC50 worked out at 21 nM and the Dmax at 30 µM turned out to be 71%. Consider `O=C1CCC(N2C(=O)c3ccc(C4(O)CCN(Cc5cccnc5)CC4)cc3C2=O)C(=O)N1` (centres unmarked) [Compound 69, 2-(2,6-dioxopiperidin-3-yl)-5-{4-hydroxy-1-[(pyridin-3-yl)methyl]piperidin-4-yl}-2,3-dihydro-1H-isoindole-1,3-dione, formic acid salt], for which the DC50 is 39 nM and the Dmax at 30 µM stood at 72%. `O=C1CCC(N2C(=O)c3ccc(C4(O)CCN(Cc5ccncc5)CC4)cc3C2=O)C(=O)N1` (centres unmarked) [Compound 70, 2-(2,6-dioxopiperidin-3-yl)-5-{4-hydroxy-1-[(pyridin-4-yl)methyl]piperidin-4-yl}-2,3-dihydro-1H-isoindole-1,3-dione, HCl salt]: the DC50 is 20 nM and the Dmax at 30 µM stood at 78%.

Take `COc1ccc(CN2CCC(O)(c3ccc4c(c3)C(=O)N(C3CCC(=O)NC3=O)C4=O)CC2)cn1` (centres unmarked) [Compound 72, 2-(2,6-dioxopiperidin-3-yl)-5-{4-hydroxy-1-[(6-methoxypyridin-3-yl)methyl]piperidin-4-yl}-2,3-dihydro-1H-isoindole-1,3-dione, HCl salt]: the DC50 was 1 nM and the Dmax at 30 µM is 80%. With `COC[C@H]1CC[C@H](CN2CCC(O)(c3ccc4c(c3)C(=O)N(C3CCC(=O)NC3=O)C4=O)CC2)CC1` (stereo partly drawn) [Compound 84, trans-2-(2,6-dioxopiperidin-3-yl)-5-(4-hydroxy-1-((4-(methoxymethyl)cyclohexyl)methyl)piperidin-4-yl)isoindoline-1,3-dione], the DC50 was found to be 8.3 nM and the Dmax at 30 µM amounted to 60%. As for `COC[C@H]1CC[C@H](CN2CCC(c3ccc4c(c3)C(=O)N(C3CCC(=O)NC3=O)C4=O)CC2)CC1` (stereo partly drawn) [Compound 85, trans-2-(2,6-dioxopiperidin-3-yl)-5-(1-((4-(methoxymethyl)cyclohexyl)methyl)piperidin-4-yl)isoindoline-1,3-dione formic acid], the Dmax at 30 µM stood at 25%. As to `O=C1CCC(N2C(=O)c3ccc(C4(O)CCN(Cc5coc(-c6ccccc6)n5)CC4)cc3C2=O)C(=O)N1` (centres unmarked) [Compound 91, 2-(2,6-dioxopiperidin-3-yl)-5-{4-hydroxy-1-[(2-phenyl-1,3-oxazol-4-yl)methyl]piperidin-4-yl}-2,3-dihydro-1H-isoindole-1,3-dione, HCl salt], the DC50 is 21 nM and the Dmax at 30 µM turned out to be 60%. Regarding `O=C1CCC(N2C(=O)c3ccc(C4(O)CCN(Cc5ccn(-c6ccccc6)n5)CC4)cc3C2=O)C(=O)N1` (centres unmarked) [Compound 94, 2-(2,6-dioxopiperidin-3-yl)-5-{4-hydroxy-1-[(1-phenyl-1H-pyrazol-3-yl)methyl]piperidin-4-yl}-2,3-dihydro-1H-isoindole-1,3-dione, HCl salt], the DC50 amounted to 8 nM and the Dmax at 30 µM stood at 79%. `O=C1CCC(N2C(=O)c3ccc(C4CCN(Cc5ccc6ncn(-c7ccccn7)c(=O)c6c5)CC4)cc3C2=O)C(=O)N1` (centres unmarked) [Compound 97, 2-(2,6-dioxopiperidin-3-yl)-5-(1-((4-oxo-3-(pyridin-2-yl)-3,4-dihydroquinazolin-6-yl)methyl)piperidin-4-yl)isoindoline-1,3-dione]: the Dmax at 30 µM came to 36%. With `O=C1CCC(N2C(=O)c3ccc(C4(O)CCN(Cc5ccc6ncn(-c7ccccn7)c(=O)c6c5)CC4)cc3C2=O)C(=O)N1` (centres unmarked) [Compound 98, 2-(2,6-dioxopiperidin-3-yl)-5-(4-hydroxy-1-((4-oxo-3-(pyridin-2-yl)-3,4-dihydroquinazolin-6-yl)methyl)piperidin-4-yl)isoindoline-1,3-dione], the DC50 is 1.5 nM and the Dmax at 30 µM was determined as 72%. Turning to `O=C1CCC(N2C(=O)c3ccc(C4(O)CCN(Cc5ccc6ncn(-c7cccnc7)c(=O)c6c5)CC4)cc3C2=O)C(=O)N1` (centres unmarked) [Compound 99, 2-(2,6-dioxopiperidin-3-yl)-5-(4-hydroxy-1-{[4-oxo-3-(pyridin-3-yl)-3,4-dihydroquinazolin-6-yl]methyl}piperidin-4-yl)-2,3-dihydro-1H-isoindole-1,3-dione, formic acid salt], the DC50 worked out at 1 nM and the Dmax at 30 µM amounted to 89%.

Consider `O=C1CCC(N2C(=O)c3ccc(C4(O)CCN(Cc5ccccc5)CC4)c(F)c3C2=O)C(=O)N1` (centres unmarked) [Compound 128, 5-(1-benzyl-4-hydroxypiperidin-4-yl)-2-(2,6-dioxopiperidin-3-yl)-4-fluoro-2,3-dihydro-1H-isoindole-1,3-dione, HCl salt], for which the DC50 was determined as 2 nM and the Dmax at 30 µM worked out at 81%. In the same order, the values of `Cn1ncc2ccc(CN3CCC(O)(c4ccc5c(c4)C(=O)N(C4CCC(=O)NC4=O)C5=O)CC3)cc21` (centres unmarked) [Compound 140, 2-(2,6-dioxopiperidin-3-yl)-5-{4-hydroxy-1-[(1-methyl-1H-indazol-6-yl)methyl]piperidin-4-yl}-2,3-dihydro-1H-isoindole-1,3-dione, formic acid salt] are 3 nM and 87%.

In the case of `Cn1ccc2cc(CN3CCC(O)(c4ccc5c(c4)C(=O)N(C4CCC(=O)NC4=O)C5=O)CC3)ccc21` (centres unmarked) [Compound 141, 2-(2,6-dioxopiperidin-3-yl)-5-{4-hydroxy-1-[(1-methyl-1H-indol-5-yl)methyl]piperidin-4-yl}-2,3-dihydro-1H-isoindole-1,3-dione, HCl salt], the DC50 was 11 nM and the Dmax at 30 µM was determined as 86%.

Turning to `Cn1c(CN2CCC(O)(c3ccc4c(c3)C(=O)N(C3CCC(=O)NC3=O)C4=O)CC2)cc2ccccc21` (centres unmarked) [Compound 142, 2-(2,6-dioxopiperidin-3-yl)-5-{4-hydroxy-1-[(1-methyl-1H-indol-2-yl)methyl]piperidin-4-yl}-2,3-dihydro-1H-isoindole-1,3-dione, formic acid salt], the DC50 turned out to be 13 nM and the Dmax at 30 µM turned out to be 82%. In the same order, the values of `CC(c1ccc(C(F)(F)F)cc1)N1CCC(O)(c2ccc3c(c2)C(=O)N(C2CCC(=O)NC2=O)C3=O)CC1` (centres unmarked) [Compound 143, 2-(2,6-dioxopiperidin-3-yl)-5-(4-hydroxy-1-{1-[4-(trifluoromethyl)phenyl]ethyl}piperidin-4-yl)-2,3-dihydro-1H-isoindole-1,3-dione, HCl salt] are 6 nM and 84%.

For `O=C1CCC(N2C(=O)c3ccc(C4(O)CCN(Cc5ccc6[nH]ccc6c5)CC4)cc3C2=O)C(=O)N1` (centres unmarked) [Compound 144, 2-(2,6-dioxopiperidin-3-yl)-5-{4-hydroxy-1-[(1H-indol-5-yl)methyl]piperidin-4-yl}-2,3-dihydro-1H-isoindole-1,3-dione, formic acid salt], the DC50 is 16 nM and the Dmax at 30 µM was 88%. In the same order, the values of `Cn1ncc2cc(CN3CCC(O)(c4ccc5c(c4)C(=O)N(C4CCC(=O)NC4=O)C5=O)CC3)ccc21` (centres unmarked) [Compound 145, 2-(2,6-dioxopiperidin-3-yl)-5-{4-hydroxy-1-[(1-methyl-1H-indazol-5-yl)methyl]piperidin-4-yl}-2,3-dihydro-1H-isoindole-1,3-dione, formic acid salt] are 4 nM and 83%.
